Reference: patent publication US10947271B2, “Antibacterial agents” (THE UNIVERSITY OF QUEENSLAND, priority 2014, dated 2021)

What was measured:
Assay type in all cases: cell-based
Details in all cases: 24 h incubation, visual reading
[1] = test system: Staphylococcus aureus MRSA ATCC 43300; experiment: MIC assay, S. aureus MRSA ATCC 43300
Protocol: (§1) Antimicrobial activity of compounds was tested against a number of bacterial strains, including Staphylococcus aureus (MRSA ATCC 43300, GISA NRS17, VISA NRS1, MRSA clinical isolate, daptomycin resistant clinical isolate), Streptococcus pneumoniae (MDR ATCC 700677), Enterococcus faecalis (VanA clinical isolate) and Enterococcus faecium (MDR Van A ATCC 51559).
(§2) All compounds were prepared to 160 μg/ml solution in water from a stock solution of 1 mM concentration.
(§3) The compounds, along with standard antibiotics were serially diluted twofold across the wells of 96-well non-binding surface plates (NBS, Corning). Standards ranged from 64 μg/ml to 0.03 μg/ml and compounds from 8 μg/ml to 0.003 μg/ml with final volumes of 50 μL per well. Gram positive bacteria were cultured in Muller Hinton broth (MHB) (Bacto laboratories, Cat. no. 211443) at 37° C. overnight. A sample of each culture was then diluted 40-fold in fresh MHB broth and incubated at 37° C. for 2-3 hrs. The resultant mid-log phase cultures were diluted to the final concentration of 5×10e5 CFU/mL, then 50 μL was added to each well of the compound-containing 96-well plates. All the plates were covered and incubated at 37° C. for 24 h. MICs were the lowest concentration showing no visible growth.
(§4) MICs were determined visually at 24 hr incubation and the MIC was defined as the lowest concentration with which no growth was visible after incubation. Both MIC and MBC were determined by visual inspection only.

[2] = test system: Enterococcus faecium MDR Van A ATCC 51559; experiment: MIC assay, E. faecium MDR Van A ATCC 51559
Protocol: as §1, §2, §3, §4

[3] = test system: Streptococcus pneumoniae MDR ATCC 700677; experiment: MIC assay, S. pneumoniae MDR ATCC 700677
Protocol: as §1, §2, §3, §4

Row | Compound | Minimum Inhibitory Concentration (MIC) Staph. aureus ATCC43300 [1] | Minimum Inhibitory Concentration (MIC) E. faecium ATCC51559 [2] | Minimum Inhibitory Concentration (MIC) S. pneumoniae ATCC 700677 [3]
1 | CCCCCCCCCCCCCC(=O)N[C@@H](CCCCN)C(=O)N[C@@H](CCCCN)C(=O)N[C@@H](CCCCNC(=O)[C@H]1NC(=O)[C@H]2NC(=O)[C@H](NC(=O)[C@@H]3NC(=O)[C@H](CC(N)=O)NC(=O)[C@H](NC(=O)[C@@H](CC(C)C)NC)[C@H](O)c4ccc(c(Cl)c4)Oc4cc3cc(c4O[C@@H]3O[C@H](CO)[C@@H](O)[C@H](O)[C@H]3O[C@H]3C[C@](C)(N)[C@H](O)[C@H](C)O3)Oc3ccc(cc3Cl)[C@H]2O)c2ccc(O)c(c2)-c2c(O)cc(O)cc21)C(N)=O [MCC_000974] | xxxxx (xxxxx = <0.01) | xxx (xxx = 0.1-<1) | xxxxx (xxxxx = <0.01)
2 | CNC(=O)C(CCCCNC(=O)C1NC(=O)C2NC(=O)C(NC(=O)C3NC(=O)C(CC(N)=O)NC(=O)C(NC(=O)C(CC(C)C)NC)C(O)c4ccc(c(Cl)c4)Oc4cc3cc(c4OC3OC(CO)C(O)C(O)C3OC3CC(C)(N)C(O)C(C)O3)Oc3ccc(cc3Cl)C2O)c2ccc(O)c(c2)-c2c(O)cc(O)cc21)NC(=O)C(CCCCN)NC(=O)C(CCCCN)NC(=O)Cc1ccc(-c2ccccc2)cc1 (stereo not drawn) [MCC_000512] | xxx (xxx = 0.1-<1) | x (x = >4) | xxx (xxx = 0.1-<1)
3 | CCCCCOc1ccc(C(=O)NC(CCCCN)C(=O)NC(CCCCN)C(=O)NC(CCCCNC(=O)C2NC(=O)C3NC(=O)C(NC(=O)C4NC(=O)C(CC(N)=O)NC(=O)C(NC(=O)C(CC(C)C)NC)C(O)c5ccc(c(Cl)c5)Oc5cc4cc(c5OC4OC(CO)C(O)C(O)C4OC4CC(C)(N)C(O)C(C)O4)Oc4ccc(cc4Cl)C3O)c3ccc(O)c(c3)-c3c(O)cc(O)cc32)C(=O)NC)cc1 (stereo not drawn) [MCC_000501] | xxxx (xxxx = 0.01-<0.1) | x (x = >4) | xxxxx (xxxxx = <0.01)
4 | CNC(=O)C(CCCCNC(=O)C1NC(=O)C2NC(=O)C(NC(=O)C3NC(=O)C(CC(N)=O)NC(=O)C(NC(=O)C(CC(C)C)NC)C(O)c4ccc(c(Cl)c4)Oc4cc3cc(c4OC3OC(CO)C(O)C(O)C3OC3CC(C)(N)C(O)C(C)O3)Oc3ccc(cc3Cl)C2O)c2ccc(O)c(c2)-c2c(O)cc(O)cc21)NC(=O)C(CCCCN)NC(=O)C(CCCCN)NC(=O)C(CCCCN)NC(=O)C(CCCCNC(=O)c1ccc(Oc2ccccc2)cc1)NC(=O)c1ccc(Oc2ccccc2)cc1 (stereo not drawn) [MCC_000316] | xxxxx (xxxxx = <0.01) | xxxx (xxxx = 0.01-<0.1) | xxxxx (xxxxx = <0.01)
5 | CCCCCCCCCCCCC(=O)N[C@@H](CCCCN)C(=O)N[C@@H](CCCCN)C(=O)N[C@@H](CCCCNC(=O)[C@H]1NC(=O)[C@H]2NC(=O)[C@H](NC(=O)[C@@H]3NC(=O)[C@H](CC(N)=O)NC(=O)[C@H](NC(=O)[C@@H](CC(C)C)NC)[C@H](O)c4ccc(c(Cl)c4)Oc4cc3cc(c4O[C@@H]3O[C@H](CO)[C@@H](O)[C@H](O)[C@H]3O[C@H]3C[C@](C)(N)[C@H](O)[C@H](C)O3)Oc3ccc(cc3Cl)[C@H]2O)c2ccc(O)c(c2)-c2c(O)cc(O)cc21)C(N)=O [MCC_000975] | xxxxx (xxxxx = <0.01) | xxx (xxx = 0.1-<1) | xxxxx (xxxxx = <0.01)
6 | CCCCCCCCCCCC(=O)N[C@@H](CCCCN)C(=O)N[C@@H](CCCCNC(=O)[C@H]1NC(=O)[C@H]2NC(=O)[C@H](NC(=O)[C@@H]3NC(=O)[C@H](CC(N)=O)NC(=O)[C@H](NC(=O)[C@@H](CC(C)C)NC)[C@H](O)c4ccc(c(Cl)c4)Oc4cc3cc(c4O[C@@H]3O[C@H](CO)[C@@H](O)[C@H](O)[C@H]3O[C@H]3C[C@](C)(N)[C@H](O)[C@H](C)O3)Oc3ccc(cc3Cl)[C@H]2O)c2ccc(O)c(c2)-c2c(O)cc(O)cc21)C(N)=O [MCC_005063] | xxxxx (xxxxx = <0.01) | xx (xx = 1-4) | xxxxx (xxxxx = <0.01)
7 | CCCCCCCCCCCC(=O)N[C@@H](CCCCN)C(=O)N[C@@H](CCCCNC(=O)[C@H]1NC(=O)[C@H]2NC(=O)[C@H](NC(=O)[C@@H]3NC(=O)[C@H](CC(N)=O)NC(=O)[C@H](NC(=O)[C@@H](CC(C)C)NC)[C@H](O)c4ccc(c(Cl)c4)Oc4cc3cc(c4O[C@@H]3O[C@H](CO)[C@@H](O)[C@H](O)[C@H]3O[C@H]3C[C@](C)(N)[C@H](O)[C@H](C)O3)Oc3ccc(cc3Cl)[C@H]2O)c2ccc(O)c(c2)-c2c(O)cc(O)cc21)C(=O)O [MCC_005224] | xxxx (xxxx = 0.01-<0.1) | xx (xx = 1-4) | xxxx (xxxx = 0.01-<0.1)
8 | CNC(CC(C)C)C(=O)NC1C(=O)NC(CC(N)=O)C(=O)NC2C(=O)NC3C(=O)NC(C(=O)NC(C(=O)NCCCCC(NC(=O)C(CCCCN)NC(=O)C(CCCCN)NC(=O)C(CCCCN)NC(=O)C(CCCCNC(=O)c4ccc(Oc5ccccc5)cc4)NC(=O)c4ccc(Oc5ccccc5)cc4)C(=O)O)c4cc(O)cc(O)c4-c4cc3ccc4O)C(O)c3ccc(c(Cl)c3)Oc3cc2cc(c3OC2OC(CO)C(O)C(O)C2OC2CC(C)(N)C(O)C(C)O2)Oc2ccc(cc2Cl)C1O (stereo not drawn) [MCC_000230] | xxxxx (xxxxx = <0.01) | xxx (xxx = 0.1-<1) | xxxx (xxxx = 0.01-<0.1)
9 | CNC(=O)[C@H](CCCCNC(=O)[C@H]1NC(=O)[C@H]2NC(=O)[C@H](NC(=O)[C@@H]3NC(=O)[C@H](CC(N)=O)NC(=O)[C@H](NC(=O)[C@@H](CC(C)C)NC)[C@H](O)c4ccc(c(Cl)c4)Oc4cc3cc(c4O[C@@H]3O[C@H](CO)[C@@H](O)[C@H](O)[C@H]3O[C@H]3C[C@](C)(N)[C@H](O)[C@H](C)O3)Oc3ccc(cc3Cl)[C@H]2O)c2ccc(O)c(c2)-c2c(O)cc(O)cc21)NC(=O)[C@@H](CCCCN)NC(=O)[C@@H](CCCCN)NC(=O)[C@H](CCCCNC(=O)c1ccc(Oc2ccccc2)cc1)NC(=O)c1ccc(Oc2ccccc2)cc1 [MCC_000766] | xxxxx (xxxxx = <0.01) | xx (xx = 1-4) | xxxxx (xxxxx = <0.01)
10 | CCCCCCCCCCC(=O)NC(CCCNC(=N)N)C(=O)NCCCNC(=O)C1NC(=O)C2NC(=O)C(NC(=O)C3NC(=O)C(CC(N)=O)NC(=O)C(NC(=O)C(CC(C)C)NC)C(O)c4ccc(c(Cl)c4)Oc4cc3cc(c4OC3OC(CO)C(O)C(O)C3OC3CC(C)(N)C(O)C(C)O3)Oc3ccc(cc3Cl)C2O)c2ccc(O)c(c2)-c2c(O)cc(O)cc21 (stereo not drawn) [MCC_007337] | xxxxx (xxxxx = <0.01) | xx (xx = 1-4) | xxxxx (xxxxx = <0.01)
11 | CNC(=O)C(CCCCNC(=O)C1NC(=O)C2NC(=O)C(NC(=O)C3NC(=O)C(CC(N)=O)NC(=O)C(NC(=O)C(CC(C)C)NC)C(O)c4ccc(c(Cl)c4)Oc4cc3cc(c4OC3OC(CO)C(O)C(O)C3OC3CC(C)(N)C(O)C(C)O3)Oc3ccc(cc3Cl)C2O)c2ccc(O)c(c2)-c2c(O)cc(O)cc21)NC(=O)C(CCCCN)NC(=O)C(CCCCNC(=O)CCCOc1ccccc1)NC(=O)CCCOc1ccccc1 (stereo not drawn) [MCC_000506] | xxx (xxx = 0.1-<1) | x (x = >4) | xxx (xxx = 0.1-<1)
